“Also recorded” adds a separate entry of the source. Read-outs that look alike come from different tables or passages of the source.
Experiments:
[1] = drug alone; literature; cited from earlier work
[2] = assay type: in vivo, rats; details: for pressing for brain stimulation, cocaine alone: cocaine (5.0 mg/kg in Example 5); for pressing for brain stimulation, NTI plus MDMA: in words
Excerpt: When rats are fixed with chronically indwelling bipolar electrodes for electrical stimulation of the medial forebrain bundle, they will press levers for brief durations of stimulation. The higher the intensity of stimulation, the greater the pressing. […] These relationships plus extant theory provide the rationale for using pressing for brain stimulation as a means of assessing the reinforcing effects of drugs and assessing which drugs might affect another drug's reinforcing effects.
The particulars of the procedures used herein are briefly summarized. Further information is in Reid (cited above) and Reid et al. (Life Sciences, 52, PL67-71 (1993)). Rats were fixed with chronically indwelling bipolar electrodes. Using standard stereotaxic methods, which includes full anesthesia, the tips of the electrode were aimed to stimulate the medial forebrain bundle as it traverses the lateral hypothalamus. With the skull held in a stereotaxic instrument so that a plane between bregma and lamba was perpendicular to the shaft of the electrode, the following stereotaxic coordinates were used: 3.5 mm posterior to brema, 1.6 mm lateral to the midline, and 8.6 mm below the surface of the skull.
The apparatus of these tests was a Skinner box (24×30 ×38 cm) equipped with a lever (2.5×2 cm). Each box was fixed with electrical leads and a slip-ring apparatus that allowed the rat to be connected to the electrical stimulator for intracranial stimulation, but allowed the rat to move freely in the box.
Upon full recovery from surgery, rats were trained to press a lever in the Skinner box for electrial stimulation of the brain. The electrical stimulation was 60 Hz sine waves of 0.3 sec. The maximum intensity used was of 50 microAmps. Each lever press delivered one 0.3-sec of brain stimulation.
Just after rats learned to press the lever, the intensity of the brain stimulation was varied. Three intensities were chosen. The lowest intensity was one that was barely sufficient to sustain lever pressing. The highest intensity sustained high rates of pressing, but not the highest rates that a rat can achieve. The medium intensity was about midway between the lowest and the highest. Once a set of intensities were established for each rat, those intensities remained fixed throughout the balance of testing. […] Each rat was under a daily regimen. They were allowed to press for each of three intensities of brain stimulation for 10 minutes. […] They were allowed to press the lever under this daily regimen under level-pressing rates became stable. Then, drugs (or placebos) were administered.
The methods of Example 5 were nearly the same as those of Example 4. Rats were fixed, using standard procedures, with chronically indwelling electrodes for stimulation of the medial forebrain bundle. Subsequent to recovery from surgery, they were trained to press for brain stimulation. After each learned to press, they were put on a daily regimen. That daily regimen involved pressing for 5 min at a high intensity of brain stimulation, followed by 5-minute sessions with medium, low, low, medium and then high intensity. Intensities were set for each rat so that pressing rate for the low intensity was rather slow (the low intensity being near lower threshold for maintaining pressing), pressing for the high intensity was at a high rate, and pressing for the medium intensity was between the rate for low and high intensity. Pressing at each intensity was averaged for an index of rat's responsiveness at that intensity.

[3] = test system: dopamine transporter; details: in words; cited from earlier work
[4] = Conditioned place preference (CPP) test; assay type: in vivo, male Lewis rats; details: for conditioned place preference, cocaine alone: cocaine 15 mg/kg s.c. plus placebo
Excerpt: Testing associated with conditioning place preference (CPP) procedures involves some rather straightforward assumptions and observations.
To test NTI's ability to block cocaine's ability to establish a CPP, male, Lewis rats were subjected to standard procedures associated with testing for place preferences. The rats were first habituated to being handled.
Then, the rats were put into an alley having two distinctive sides with the barrier separating the two sides not in place, i.e., a baseline preference for the two sides was measured. After baseline was determined, the conditioning procedures began.
The conditioning procedures were the same for all rats, except that there were four different regimens of drug administration, one regimen for each of four different groups of rats (12 rats a group). The conditioning procedure involved one set of kind of injections before a rat was placed in one side of the alley and another set of kind of injections before being placed in the other side.
The group of rats that received the procedures usually used to show a cocaine-produced CPP, received cocaine-injections (plus a placebo injection) before being put into the putative side of conditioning. The dose of cocaine was 15 mg/kg given subcutaneously, a relatively large dose of cocaine. On the next day, this group received placebo injections before being put into the alternative side. These procedures were repeated throughout conditioning.
There was also a group that received placebos (vehicles for both cocaine and NTI) before being placed in either side of the chamber. This is a typical control group and can be used to determine if merely the procedures themselves of handling the rats leads rats to change their preference for a side of the alley.
There was yet another control group. This group received NTI before being placed in the side of putative conditioning and placebos at other times. […] So, the basic conditions for testing a NTI's effects on cocaine's ability to establish a CPP indicative of cocaine's positivity were set.
FIG. 2 depicts the mean percent change from baseline for each of the experimental groups. The group represented by the open bar (far left bar) received only injections of placebos before being put into either side of the apparatus, i.e., this is a placebo control group. […] The striped bar depicts the mean scores of the group that received NTI before being placed into the side of conditioning and saline before being placed into the other side. […] The solid black bar depicts the scores of the group getting cocaine before being put into the side of conditioning (saline or placebo before being put into the other side). […] The cross-hatched bar depicts the mean score of the group treated with cocaine but also receiving NTI.

[5] = assay type: in vivo, rats; details: cocaine 0.4 mg/kg a lever press; one-hour session
Excerpt: When rats are fixed with chronically indwelling intravenous catheters, drugs can be administered as the rats are walking around. These same rats can be put into a box equipped with a lever, the depression of which actuates a pump that can deliver drug through the catheter, i.e., the rats can be put into a Skinner box with drug administration a continguency of lever-pressing. […] See J. R. Weeks et al., "Screening for Drug Reinforcement Using Intravenous Self-Administration in the Rat," Bozarth, cited above, at pages 35-44.
Rats were fixed with chronically indwelling catheters for the delivery of doses of cocaine directly into their veins. Subsequently, the rats were trained to press a lever for small bolus injections of cocaine (0.4 mg/kg of cocaine a lever press with an injection volume of 10 microliters of drug plus saline solution, the drug carrier). Rats were given one-hour opportunities daily to press for cocaine.

[6] = biological target: mu opioid receptor; details: agonist morphine in GPI; antagonist 100 or 200 nM, 15 min; read-out: Ke; cited from earlier work
[7] = test system: delta opioid receptor; assay: In vivo antagonism of DSLET antinociception (writhing); set-up: species or system mice; details: 20 mg/kg s.c.; in words
Method: When mice are injected with an irritant, they respond by a characteristic writhing that can be inhibited by analgesics. Consequently, the writhing response can be used to index the effects of particular opioids.

COC(=O)[C@H]1[C@@H](OC(=O)c2ccccc2)C[C@@H]2CC[C@H]1N2C [Cocaine, methyl 3-(benzoyloxy)-8-methyl-8-azabicyclo[3.2.1]octane-2-carboxylate]
conditioned place preference [1]: establishes a CPP | pressing for brain stimulation, cocaine alone [2]: leads to a marked increase in pressing compared to pressing under the influence of placebo | pressing for brain stimulation, cocaine alone ([2]; listed as cocaine): large increase in pressing; also recorded: increased pressing for stimulation | dopamine transporter binding / dopamine reuptake inhibition [3]: binds to the dopamine transporter and inhibits dopamine reuptake | conditioned place preference, cocaine alone [4]: established a positive CPP; also recorded: produced a significant (asterisk) positive place preference | conditioned place preference, cocaine alone ([4]; listed as cocaine): statistically significantly different than its baseline score and is significantly larger than the placebo-control group's scores | cocaine self-administration, average presses without NTI [5]: about 11 presses a session

Oc1ccc2c3c1O[C@H]1c4[nH]c5ccccc5c4C[C@@]4(O)[C@@H](C2)N(CC2CC2)CC[C@]314 [Compound 1, 17-(cyclopropylmethyl)-6,7-dehydro-3,14β-dihydroxy-4,5α-epoxy-6,7-2',3'-indolmorphinan]
Kb [6]: 29.4 nM | mean presses at High intensity, MDMA plus Naltrindole ([2]; High intensity, combination with MDMA, six rats): 825 presses per ten minutes | mean presses at Low intensity, MDMA plus Naltrindole ([2]; Low intensity, combination with MDMA, six rats): 98 presses per ten minutes | mean presses at Medium intensity, MDMA plus Naltrindole ([2]; Medium intensity, combination with MDMA, six rats): 342 presses per ten minutes | pressing for brain stimulation, NTI alone ([2]; NTI by itself, listed as NTI): no demonstratable effect; also recorded: did not, by itself, reduce pressing for brain stimulation | pressing for brain stimulation, NTI plus MDMA ([2]; listed as NTI): reduced the increased pressing associated with the administration of MDMA | pressing for brain stimulation, NTI plus MDMA ([2]; listed as naltrindole): pressing at the low intensity is reduced considerably and there is no reliable difference in pressing under the combination of drugs compared to placebo | pressing for brain stimulation, NTI plus amphetamine ([2]; rat, in vivo): pressed somewhat less under the influence of NTI (10 mg/kg) plus amphetamine than they did under the influence of placebos; also recorded: NTI can modulate amphetamine's as well as cocaine's reinforcing effects; also recorded: reduced pressing similar to rate under placebo | pressing for brain stimulation, NTI plus cocaine ([2]; rat, in vivo): NTI blocked cocaine's effects; also recorded: blocked the effects of cocaine; also recorded: NTI blocked cocaine's ability to be reinforcing; also recorded: reduced rate of pressing under the influence of cocaine to that similar to rate of pressing under placebo alone; also recorded: extraordinarily effective in blocking cocaine's salient effects | pressing for brain stimulation, NTI plus morphine ([2]; rat, in vivo): hardly affected the effects of morphine; also recorded: negligible; also recorded: did not markedly or significantly affect rate of pressing | conditioned place preference, NTI alone ([4]; rat, in vivo): did not significantly change from baseline to testing; also recorded: not statistically different at testing from baseline; also recorded: did not by itself establish a place preference; also recorded: did not produce place preferences or place aversions | conditioned place preference, NTI plus cocaine ([4]; rat, in vivo): significantly different from the cocaine group's scores but not different from the other groups' scores; also recorded: blocked cocaine's ability to produce a positive CPP; also recorded: antagonized by naltrindole | blocking of writhing inhibition due to DSLET [7]: effectively blocked the writhing inhibition due to DSLET

From patent US5411965A, “Use of delta opioid receptor antagonists to treat cocaine abuse” (Arizona Board of Regents, priority 1993, dated 1995)
